This note sets out measurements from patent US20240246964A1 (Arbutus Biopharma Corporation, priority 2021, published 2024).

Experiment [1] has as its target PD-L1 His protein / PD-1 Fc protein (Homo sapiens (Human), UniProt Q9NZQ7). Nature of the experiment: HTRF Assay (PD-1/PD-L1 interaction). The experiment is classed as binding. Particulars: PD-L1 His 6 nM, PD-1 Fc 6 nM. In general terms: TR-FRET usually uses a lanthanide donor and a delayed reading to cut background.
Experiment [2] addresses human PD-L1 (Homo sapiens (Human), UniProt Q9NZQ7). The experiment can be described thus: T cell activation luciferase reporter cell culture system (T Cell Activation Assay). The experiment is classed as cell-based. Particulars: luciferase reporter assay; PD-L1 aAPC/CHO-K1 cells with PD-1 effector Jurkat T cells. For orientation: In a reporter assay the amount or activity of a reporter protein is the signal.

Each structure is given as a SMILES string. A value given as a limit tells only on which side of the number the result lay.

Sequence of PD-L1 His protein / PD-1 Fc protein (Q9NZQ7 19-238): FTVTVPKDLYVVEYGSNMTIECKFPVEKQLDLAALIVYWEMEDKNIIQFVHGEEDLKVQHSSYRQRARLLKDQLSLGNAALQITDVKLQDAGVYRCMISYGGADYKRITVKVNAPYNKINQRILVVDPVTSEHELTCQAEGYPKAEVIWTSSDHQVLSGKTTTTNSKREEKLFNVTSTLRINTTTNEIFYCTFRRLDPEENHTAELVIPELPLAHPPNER
Sequence of human PD-L1 (Q9NZQ7 19-290): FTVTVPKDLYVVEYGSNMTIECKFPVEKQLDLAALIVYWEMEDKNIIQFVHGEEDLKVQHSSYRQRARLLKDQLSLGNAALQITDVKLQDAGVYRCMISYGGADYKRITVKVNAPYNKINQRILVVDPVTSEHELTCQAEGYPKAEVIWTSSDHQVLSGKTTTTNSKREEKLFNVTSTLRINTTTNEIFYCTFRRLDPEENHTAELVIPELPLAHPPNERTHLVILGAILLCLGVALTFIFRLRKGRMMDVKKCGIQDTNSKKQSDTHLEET

In general, IC50 refers to the concentration that gives 50% inhibition. Usually EC50 stands for the concentration needed to bring the measured effect to its halfway point. In turn, `COc1cc(-c2nccc(-c3cccc(-c4ccc(CNC5CCOCC5)c(OC)n4)c3C)c2C)ccc1CNC1CCOCC1` [Example 425, N-(2-Methoxy-4-(4-(3-(6-methoxy-5-(((tetrahydro-2H-pyran-4-yl)amino)methyl)pyridin-2-yl)-2-methylphenyl)-3-methylpyridin-2-yl)benzyl)tetrahydro-2H-pyran-4-amine] yielded a 50% inhibitory concentration (IC50) in experiment [1] of 7.08 nM. Moreover, in experiment [2], the EC50 was 841 nM.
`COc1cc(-c2nccc(-c3cccc(-c4ccc(CNC5CCOCC5)c(OC)n4)c3C)c2Cl)ccc1CNC1CCOCC1` [Example 426, N-((6-(3-(3-chloro-2-(3-methoxy-4-(((tetrahydro-2H-pyran-4-yl)amino)methyl)phenyl)pyridin-4-yl)-2-methylphenyl)-2-methoxypyridin-3-yl)methyl)tetrahydro-2H-pyran-4-amine] registered an IC50 in experiment [1] of 4.23 nM. Also, it took 98.8 nM to reach a half-maximal effect in experiment [2] (EC50).
In the case of `COc1cc(-c2nccc(-c3cccc(-c4ccc(CNC5CCN(C(C)=O)CC5)c(OC)n4)c3Cl)c2Cl)ccc1CN(C)C1CCOCC1` [Example 427, 1-(4-(((6-(2-chloro-3-(3-chloro-2-(3-methoxy-4-((methyl(tetrahydro-2H-pyran-4-yl)amino)methyl)phenyl)pyridin-4-yl)phenyl)-2-methoxypyridin-3-yl)methyl)amino)piperidin-1-yl)ethan-1-one], in experiment [1], the IC50 came out at 8.8 nM. In experiment [2], this compound returned an EC50 of 25 nM.
Take `COc1cc(-c2nccc(-c3cccc(-c4ccc(CN5CC6(CNC(=O)C6)C5)c(OC)n4)c3F)c2Cl)ccc1CN1CC2(CNC(=O)C2)C1` [Example 438, 2-(4-(3-chloro-4-(2-fluoro-3-(6-methoxy-5-((7-oxo-2,6-diazaspiro[3.4]octan-2-yl)methyl)pyridin-2-yl)phenyl)pyridin-2-yl)-2-methoxybenzyl)-2,6-diazaspiro[3.4]octan-7-one]: half-maximal inhibition in experiment [1] (IC50) required 3.1 nM. Moreover, the midpoint of the response in experiment [2], the EC50, lay at 58.7 nM.
In experiment [1], `COc1cc(-c2nccc(-c3cccc(-c4ccc(CNC5CCN(C(C)=O)CC5)c(OC)n4)c3F)c2Cl)ccc1CNC1CCN(C(C)=O)CC1` [Example 439, 1-(4-(((6-(3-(2-(4-(((1-Acetylpiperidin-4-yl)amino)methyl)-3-methoxyphenyl)-3-chloropyridin-4-yl)-2-fluorophenyl)-2-methoxypyridin-3-yl)methyl)amino)piperidin-1-yl)ethan-1-one] showed an IC50 of 2.74 nM. In experiment [2], the 50% effective concentration (EC50) stood at 121 nM.
Consider `COc1cc(-c2nccc(-c3cccc(-c4ccc(CNC5CCOCC5)c(OC)n4)c3F)c2Cl)ccc1CNC1CCOCC1` [Example 440, N-((6-(3-(3-Chloro-2-(3-methoxy-4-(((tetrahydro-2H-pyran-4-yl)amino)-methyl)phenyl)pyridin-4-yl)-2-fluorophenyl)-2-methoxypyridin-3-yl)methyl)tetrahydro-2H-pyran-4-amine], for which the 50% inhibitory concentration (IC50) in experiment [1] is 9.97 nM. The compound further displayed an EC50 in experiment [2] of 214 nM.
`COc1cc(-c2nccc(-c3cccc(-c4ccc(CNC5CCOCC5)c(OC)n4)c3Cl)c2Cl)ccc1CN(C)C1CCOCC1` [Example 441, N-(4-(3-chloro-4-(2-chloro-3-(6-methoxy-5-(((tetrahydro-2H-pyran-4-yl)amino)methyl)pyridin-2-yl)phenyl)pyridin-2-yl)-2-methoxybenzyl)-N-methyltetrahydro-2H-pyran-4-amine] had a half-maximal inhibitory concentration (IC50) in experiment [1] of 5.61 nM. The compound also showed a 50% effective concentration (EC50) in experiment [2] of 149 nM.
The compound `COc1cc(-c2nccc(-c3cccc(-c4ccc(CNC5CCOCC5)c(OC)n4)c3Cl)c2Cl)ccc1CN(C)C1CCN(C(C)=O)CC1` [Example 442, 1-(4-((4-(3-chloro-4-(2-chloro-3-(6-methoxy-5-(((tetrahydro-2H-pyran-4-yl)amino)methyl)pyridin-2-yl)phenyl)pyridin-2-yl)-2-methoxybenzyl)(methyl)amino)piperidin-1-yl)ethan-1-one] registered a half-inhibitory concentration (IC50) in experiment [1] of 5.94 nM. Besides, the midpoint of the response in experiment [2], the EC50, lay at 43.3 nM.
In turn, `COCCNCc1ccc(-c2nccc(-c3cccc(-c4ccc(CNCCOC)c(OC)n4)c3Cl)c2Cl)cc1OC` [Example 446, N-((6-(2-chloro-3-(3-chloro-2-(3-methoxy-4-(((2-methoxyethyl)amino)methyl)phenyl)pyridin-4-yl)phenyl)-2-methoxypyridin-3-yl)methyl)-2-methoxyethan-1-amine] displayed an IC50 in experiment [1] of 3.75 nM. The compound also returned an EC50 in experiment [2] of 31 nM.
Compound `COc1cc(-c2nccc(-c3cccc(-c4ccc(CNC5CCN(C(C)=O)CC5)c(OC)n4)c3F)c2F)ccc1CNC1CCN(C(C)=O)CC1` [Example 449, 1-(4-(((6-(3-(2-(4-(((1-acetylpiperidin-4-yl)amino)methyl)-3-methoxyphenyl)-3-fluoropyridin-4-yl)-2-fluorophenyl)-2-methoxypyridin-3-yl)methyl)amino)piperidin-1-yl)ethan-1-one] had an IC50 in experiment [1] of 12.9 nM. Also, the EC50 in experiment [2] was at least 10000 nM.
With `COc1cc(-c2nccc(-c3cccc(-c4ccc(CN[C@H]5CC[C@H](OC)CC5)c(OC)n4)c3Cl)c2Cl)ccc1CN[C@H]1CC[C@H](OC)CC1` [Example 450, (1r,4r)-N-((6-(2-Chloro-3-(3-chloro-2-(3-methoxy-4-((((1r,4r)-4-methoxycyclohexyl)amino)methyl)phenyl)pyridin-4-yl)phenyl)-2-methoxypyridin-3-yl)methyl)-4-methoxycyclohexan-1-amine], the midpoint of inhibition in experiment [1], the IC50, lay at 2.36 nM. This compound also gave an EC50 in experiment [2] of 54.7 nM.
In experiment [1], `COc1cc(-c2nccc(-c3cccc(-c4ccc(CNC5CCOCC5)c(OC)n4)c3F)c2F)ccc1CNC1CCOCC1` [Example 452, N-((6-(2-Fluoro-3-(3-fluoro-2-(3-methoxy-4-(((tetrahydro-2H-pyran-4-yl)amino)methyl)phenyl)pyridin-4-yl)phenyl)-2-methoxypyridin-3-yl)methyl)tetrahydro-2H-pyran-4-amine] had an IC50 of 22.6 nM. The same compound came in with a concentration for a half-maximal effect (EC50) in experiment [2] of at least 10000 nM.
Turning to `COc1cc(-c2nccc(-c3cccc(-c4ccc(CNC5CCN(C(C)=O)CC5)c(OC)n4)c3Cl)c2Cl)ccc1CN1CCOCC1` [Example 458, 1-(4-(((6-(2-Chloro-3-(3-chloro-2-(3-methoxy-4-(morpholinomethyl)phenyl)pyridin-4-yl)phenyl)-2-methoxypyridin-3-yl)methyl)amino)piperidin-1-yl)ethan-1-one], the IC50 in experiment [1] was found to be 24.6 nM. The compound also displayed a half-maximal effective concentration (EC50) in experiment [2] of 82.6 nM.
Taken in the same sequence, the figures for `COc1cc(-c2nccc(-c3cccc(-c4ccc(CNC5CCOCC5)c(OC)n4)c3Cl)c2C)ccc1CNC1CCOCC1` [Example 462, N-((6-(2-chloro-3-(2-(3-methoxy-4-(((tetrahydro-2H-pyran-4-yl)amino)methyl)phenyl)-3-methylpyridin-4-yl)phenyl)-2-methoxypyridin-3-yl)methyl)tetrahydro-2H-pyran-4-amine] were 6.78 nM and 178 nM.
In experiment [1], `COc1cc(-c2nccc(-c3cccc(-c4ccc(CN5CC6(CCOCC6)C5)c(OC)n4)c3Cl)c2Cl)ccc1CN1CC2(CCOCC2)C1` [Example 470, 2-((6-(3-(2-(4-((7-Oxa-2-azaspiro[3.5]nonan-2-yl)methyl)-3-methoxyphenyl)-3-chloropyridin-4-yl)-2-chlorophenyl)-2-methoxypyridin-3-yl)methyl)-7-oxa-2-azaspiro[3.5]nonane] came in with a half-maximal inhibitory concentration (IC50) of 19.3 nM. The same compound returned an EC50 in experiment [2] of 190 nM.
The like results for `COc1cc(-c2nccc(-c3cccc(-c4ccc(CN5CC(C(C)(C)O)C5)c(OC)n4)c3Cl)c2Cl)ccc1CN1CC(C(C)(C)O)C1` [Example 471, 2-(1-((6-(2-Chloro-3-(3-chloro-2-(4-((3-(2-hydroxypropan-2-yl)azetidin-1-yl)methyl)-3-methoxyphenyl)pyridin-4-yl)phenyl)-2-methoxypyridin-3-yl)methyl)azetidin-3-yl)propan-2-ol] were, in that order, 4.63 nM and 111 nM.
In turn, `COc1cc(-c2nccc(-c3cccc(-c4ccc(CN(C)C[C@H]5CNC(=O)C5)c(OC)n4)c3Cl)c2Cl)ccc1CN(C)C[C@H]1CNC(=O)C1` [Example 473, (R)-4-((((6-(2-Chloro-3-(3-chloro-2-(3-methoxy-4-((methyl(((R)-5-oxopyrrolidin-3-yl)methyl)amino)methyl)phenyl)pyridin-4-yl)phenyl)-2-methoxypyridin-3-yl)methyl)(methyl)amino)methyl)pyrrolidin-2-one] yielded a half-maximal inhibitory concentration (IC50) in experiment [1] of 16.9 nM. Further, in experiment [2], the 50% effective concentration (EC50) is at least 10000 nM.
Turning to `COc1nc(-c2cccc(-c3ccnc(-c4cc(OC)c5nc(CN6CC(C)(C#N)C6)cn5c4)c3Cl)c2Cl)ccc1CNC1CCN(C(C)=O)CC1` [Example 477, 1-((6-(4-(3-(5-(((1-Acetylpiperidin-4-yl)amino)methyl)-6-methoxypyridin-2-yl)-2-chlorophenyl)-3-chloropyridin-2-yl)-8-methoxyimidazo[1,2-a]pyridin-2-yl)methyl)-3-methylazetidine-3-carbonitrile], the IC50 in experiment [1] came out at 21.4 nM. Besides, the response in experiment [2] was half-maximal at 7480 nM (EC50).
On to `COc1nc(-c2cccc(-c3ccnc(-c4cc(OC)c5nc(CNCC(F)F)cn5c4)c3Cl)c2Cl)ccc1CNC1CCN(C(C)=O)CC1` [Example 478, 1-(4-(((6-(2-Chloro-3-(3-chloro-2-(2-(((2,2-difluoroethyl)amino)methyl)-8-methoxyimidazo[1,2-a]pyridin-6-yl)pyridin-4-yl)phenyl)-2-methoxypyridin-3-yl)methyl)amino)piperidin-1-yl)ethan-1-one], for which, in experiment [1], the IC50 came out at 43.9 nM. This compound showed a concentration for a half-maximal effect (EC50) in experiment [2] of at least 10000 nM.
Consider `COc1cc(-c2nccc(-c3cccc(-c4ccc(CNC5CCN(C(C)=O)CC5)c(OC)n4)c3Cl)c2Cl)cc2c1CN(C1CCN(CC(=O)O)C1=O)CC2` (stereo not shown) [Example 480, 2-(3-(6-(4-(3-(5-(((1-Acetylpiperidin-4-yl)amino)methyl)-6-methoxypyridin-2-yl)-2-chlorophenyl)-3-chloropyridin-2-yl)-8-methoxy-3,4-dihydroisoquinolin-2(1H)-yl)-2-oxopyrrolidin-1-yl)acetic acid], for which the midpoint of inhibition in experiment [1], the IC50, lay at 3.9 nM. In experiment [2], this compound had an EC50 of 1490 nM.
